Measurements: ChEMBL document CHEMBL1201862, “PubChem BioAssay data set” (2004)
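How tested: cells in 96-well plates exposed to compound for 48 hours at five concentrations. The concentration for 50% growth inhibition is given as GI50.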 Activity calls are given as the source filed them. Cut-off read from the data, not from the text of the source: active = GI50 up to about 1.1 µM and inactive = higher. Non-standard residues stand in square brackets, D forms with d. Residues, ends and D or L forms follow the SMILES beside them. *: point of attachment. NMeF = CN[CH](Cc1ccccc1)C(=O)O; NMeV = CN[CH](C(=O)O)C(C)C; Boc = CC(C)(C)OC(=O)*

Key:
Assay in all cases: NCI-60 cell line screen, 48 h
BT-549 = test system: BT-549
KM-20L2 = test system: KM-20L2
XF498 = test system: XF498
DLD-1 = test system: DLD-1
SNB-78 = test system: SNB-78
DMS-114 = test system: DMS-114
LXFL 529 = test system: LXFL 529
HOP-18 = test system: HOP-18
RXF 631 = test system: RXF 631

| SMILES | GI50 (BT-549) | GI50 (KM-20L2) | GI50 (DLD-1) | GI50 (SNB-78) | GI50 (DMS-114) | GI50 (LXFL 529) | also measured |
| --- | --- | --- | --- | --- | --- | --- | --- |
| CCOC(=O)C12OC(OCC)(CC1(OCC)OCC)C1(CC1)C2=O (stereo not given) | > 100 µM (inactive) |  |  |  |  |  |  |
| O=C(O)c1ccc(NC(=O)C2C(=O)C(=O)N(c3ccc(C(=O)O)cc3)C2=O)cc1 (stereo not given) |  | > 100 µM (inactive) | > 100 µM (inactive) | > 100 µM (inactive) |  |  | GI50 (XF498): > 100 µM (inactive) |
| C[C@H]1[C@H](C)N1CC(O)Cn1ccnc1[N+](=O)[O-] (stereo not given in full) | > 100 µM (inactive) |  |  |  |  |  |  |
| COc1ccc(C2C(Cl)C(=O)N2NC(=O)c2ccccc2O)cc1OC (stereo not given) |  |  | > 100 µM (inactive) | > 100 µM (inactive) | 41.1 µM (inactive) | > 10 µM (inactive) | GI50 (XF498): 15.5 µM (inactive) |
| CC1=NN(C(=O)c2ccc(Cl)cc2)C(=O)/C1=C/c1ccccc1O |  | > 100 µM (inactive) | > 100 µM (inactive) | > 100 µM (inactive) | > 100 µM (inactive) | > 100 µM (inactive) | GI50 (XF498): > 100 µM (inactive) |
| CC(C)OP(=O)(OC(C)C)/C(C#N)=C/c1c[nH]c2ccccc12 | 31 µM (inactive) |  |  |  |  |  |  |
| CNC1=C(C)C(=O)C(O)=C([C@H](C)CCC=C(C)C)C1=O | 52.2 µM (inactive) |  |  |  |  |  |  |
| C=C(Cl)c1c(OC)cccc1OCc1ccccc1 | > 100 µM (inactive) |  |  |  |  |  |  |
| O=C(O)Cc1ccc(Oc2nc3ccccc3nc2-c2cccs2)cc1 | 30.5 µM (inactive) |  |  |  |  |  |  |
| Oc1ccc(Cl)cc1Cc1cc(Cl)cc(Cc2cc(Cl)ccc2O)c1O | 2.79 µM (inactive) |  |  |  |  |  |  |
| O=C1c2ccccc2C(=O)c2[nH]c(Cc3ccccc3F)nc21 |  | 33.9 µM (inactive) | 16.1 µM (inactive) |  | 33.7 µM (inactive) | 31.9 µM (inactive) | GI50 (XF498): 53.1 µM (inactive); GI50 (HOP-18): 93.8 µM (inactive) |
| CN1C(=O)CNS1(=O)=O |  |  | > 100 µM (inactive) | > 100 µM (inactive) | > 100 µM (inactive) | > 100 µM (inactive) | GI50 (RXF 631): > 100 µM (inactive); GI50 (XF498): > 100 µM (inactive) |
| COc1ccc2cc(Oc3ccc(Cl)cc3)c(=O)oc2c1 | > 100 µM (inactive) |  |  |  |  |  |  |
| CCCCCCCCCCCCCCCCOc1ccc(/C=C/C2=[N+](CCCl)CCO2)cc1 | > 100 µM (inactive) |  |  |  |  |  |  |
| COc1cc2c3c(c1OC)C1(C=CC(=O)C=C1)CC3N(C(=O)OC(C)(C)C(Cl)(Cl)Cl)CC2 (stereo not given) |  | 11.4 µM (inactive) | 8.45 µM (inactive) | 14.4 µM (inactive) | 7.55 µM (inactive) | 8.85 µM (inactive) | GI50 (XF498): 8.69 µM (inactive); GI50 (HOP-18): 22.8 µM (inactive) |
| COC(=O)N1CC[C@@H]2CCC=C(c3cccc4c3OCO4)[C@@H]21 | 81.5 µM (inactive) |  |  |  |  |  |  |
| O=[N+]([O-])c1ccc(/C=N\N=c2/ccc([N+](=O)[O-])c[nH]2)cc1 | > 100 µM (inactive) |  |  |  |  |  |  |
| CC1CCCC(CC(=O)O)(CC(=O)O)C1 (stereo not given) | > 100 µM (inactive) |  |  |  |  |  |  |
| CCN(CC)c1ccc2cc(C(=O)Nc3ccccc3OC)c(=N)oc2c1 | 26.6 µM (inactive) |  |  |  |  |  |  |
| CC(C)C(NC(=O)OC(C)(C)C)C(=O)N(C)C(Cc1ccccc1)C(=O)N(C)C(C(=O)N(C)C(C(=O)O)C(C)C)C(C)C (stereo not given) (Boc-V[NMeF][NMeV][NMeV]-OH; configuration not given here) |  | > 100 µM (inactive) |  |  | > 100 µM (inactive) | > 100 µM (inactive) | GI50 (XF498): > 100 µM (inactive) |
| CCOC(=O)c1cn(C)c(=S)n2c1nc1ccccc12 | 97.3 µM (inactive) |  |  |  |  |  |  |
| CCC(C)C(=O)OC1C(=O)OC2CC3C(C)=CC(=O)C(O)C3(C)C3C4(O)OCC23C1C(C)C4O (stereo not given) | < 0.017 µM (active) |  |  |  |  |  |  |
| COC1=CC(=O)c2c(c(COP(=O)(N(C)CCBr)N(C)CCBr)cn2C)C1=O | 0.078 µM (active) |  |  |  |  |  |  |
| O=C(O)C(CS)NCc1c2ccccc2nc2ccccc12 (stereo not given) |  | 41.6 µM (inactive) | 24.4 µM (inactive) |  |  | 39.7 µM (inactive) | GI50 (RXF 631): 22.3 µM (inactive); GI50 (XF498): 15.5 µM (inactive) |
| O=C(c1ccco1)N(C(=O)N1CCC(c2ccccc2)CC1)c1ccccc1 | 33.7 µM (inactive) |  |  |  |  |  |  |
| O=C(CC(=O)C1CCOC1=O)C(=O)Nc1cccc(Cl)c1 (stereo not given) |  | > 100 µM (inactive) | > 100 µM (inactive) | > 100 µM (inactive) | > 100 µM (inactive) | > 100 µM (inactive) | GI50 (RXF 631): > 100 µM (inactive); GI50 (HOP-18): > 100 µM (inactive) |
| CCN1C(NN)=NS(=O)(=O)c2ccccc21 | > 100 µM (inactive) |  |  |  |  |  |  |
| C=CCO/N=C(\OC(=O)c1ccc([N+](=O)[O-])cc1)c1ccccc1 |  |  | > 100 µM (inactive) | > 100 µM (inactive) | > 100 µM (inactive) | > 100 µM (inactive) | GI50 (RXF 631): > 100 µM (inactive); GI50 (HOP-18): > 100 µM (inactive) |
| CCOC(=O)c1ccc(N2C(=O)Cc3ccccc3C2=O)cc1 |  | > 100 µM (inactive) |  | > 100 µM (inactive) | > 100 µM (inactive) | > 100 µM (inactive) |  |
| COc1ccc2nc3cc(Cl)ccc3c(Sc3ccc(NC(C)=O)cc3)c2c1 |  | > 21.3 µM (inactive) | 6.89 µM (inactive) | 5.6 µM (inactive) | 6.84 µM (inactive) | 7.31 µM (inactive) | GI50 (RXF 631): 8.85 µM (inactive); GI50 (HOP-18): > 29.9 µM (inactive) |
